Columns and labels:
Type in all cases: in vivo
Settings in all cases: rating 0-100 (0 no damage, 100 complete death), 14 days after application
[1] = system: redroot pigweed (Amaranthus retroflexus, AMARE); test: Pre-emerge herbicidal activity, greenhouse screen, AMARE
Description: (§1) A standard greenhouse herbicide activity screening system was used to evaluate the herbicidal efficacy and crop safety of these test compounds. Seven broadleaf weed species including redroot pigweed (Amaranthus retroflexus, AMARE), velvetleaf (Abutilon theophrasti, ABUTH), sicklepod (Cassia obtusifolia, CASOB), ivyleaf morningglory (Ipomoea hederacea, IPOHE), lambsquarters (Chenopodium album, CHEAL), common ragweed (Ambrosia artemisiifolia L., AMBEL), and cocklebur (Xanthium strumarium, XANST) were used as test species. Four grass weed species including green foxtail (Setaria viridis, SETVI), barnyardgrass (Echinochloa crus-galli, ECHCG), johnsongrass (Sorghum halepense, SORHA), and large crabgrass (Digitaria sanguinalis, DIGSA) were also used. In addition, three crop species, field corn (Zea mays L., var. Dekalb 527, CORN), soybean (Glycine max L., var. Pella 86, SOY), and upland rice (Oryza sp., var. Tebonnet, RICE) were included.
(§2) All plants were grown in 10 cm square plastic pots which were filled with a sandy loam soil mix. For pre-emerge tests, seeds were planted one day prior to application of the test compounds. For post-emerge tests, seeds were planted 8-21 days prior to the test to allow emergence and good foliage development prior to application of the test substances. At the time of the post-emerge application, plants of all species were usually at the 2-3 leaf stage of development.
(§3) All test compounds were dissolved in acetone and applied to the test units in a volume of 187 l/ha. Test materials were applied at rates ranging from 15 g ai/ha to 1000 g ai/ha using a track sprayer equipped with a TJ8001 E even flow flat fan spray nozzle. Plants were arranged on a shelf so that the top of the canopy (post-emerge) or top of the soil surface (pre-emerge) was 40-45 cm below the nozzle. Pressurized air was used to force the test solution through the nozzle as it was mechanically advanced over the top of all test plants/pots. This application simulates a typical commercial field herbicide application.
(§4) In the post-emerge test, a commercial non-ionic surfactant was also included (0.25% v/v) to enhance wetting of the leaf surfaces of target plants. Immediately after application, test units of the pre-emerge applications were watered at the soil surface to incorporate the test materials.
(§5) At 14 days after application of the test materials, phytotoxicity ratings were recorded. A rating scale of 0-100 was used as previously described in Research Methods in Weed Science, 2nd edition, B. Truelove, Ed., Southern Weed Science Society, Auburn University, Auburn, Ala., 1977. Briefly, “0” corresponds to no damage and “100” corresponds to complete death of all plants in the test unit. This scale was used both to determine efficacy against weed species and damage to crop species. Herbicide activity data for various compounds of this invention, which are shown by compound No. in Tables 1-7, are shown in Tables 8 and 9.

[2] = system: velvetleaf (Abutilon theophrasti, ABUTH); test: Pre-emerge herbicidal activity, greenhouse screen, ABUTH
Description: as §1, §2, §3, §4, §5

[3] = system: sicklepod (Cassia obtusifolia, CASOB); test: Pre-emerge herbicidal activity, greenhouse screen, CASOB
Description: as §1, §2, §3, §4, §5

[4] = system: ivyleaf morningglory (Ipomoea hederacea, IPOHE); test: Pre-emerge herbicidal activity, greenhouse screen, IPOHE
Description: as §1, §2, §3, §4, §5

[5] = system: lambsquarters (Chenopodium album, CHEAL); test: Pre-emerge herbicidal activity, greenhouse screen, CHEAL
Description: as §1, §2, §3, §4, §5

[6] = system: common ragweed (Ambrosia artemisiifolia L., AMBEL); test: Pre-emerge herbicidal activity, greenhouse screen, AMBEL
Description: as §1, §2, §3, §4, §5

[7] = system: green foxtail (Setaria viridis, SETVI); test: Pre-emerge herbicidal activity, greenhouse screen, SETVI
Description: as §1, §2, §3, §4, §5

[8] = system: barnyardgrass (Echinochloa crus-galli, ECHCG); test: Pre-emerge herbicidal activity, greenhouse screen, ECHCG
Description: as §1, §2, §3, §4, §5

[9] = system: johnsongrass (Sorghum halepense, SORHA); test: Pre-emerge herbicidal activity, greenhouse screen, SORHA
Description: as §1, §2, §3, §4, §5

[10] = system: large crabgrass (Digitaria sanguinalis, DIGSA); test: Pre-emerge herbicidal activity, greenhouse screen, DIGSA
Description: as §1, §2, §3, §4, §5

[11] = system: redroot pigweed (Amaranthus retroflexus, AMARE); test: Post-emerge herbicidal activity, greenhouse screen, AMARE
Description: as §1, §2, §3, §4, §5

[12] = system: velvetleaf (Abutilon theophrasti, ABUTH); test: Post-emerge herbicidal activity, greenhouse screen, ABUTH
Description: as §1, §2, §3, §4, §5

[13] = system: sicklepod (Cassia obtusifolia, CASOB); test: Post-emerge herbicidal activity, greenhouse screen, CASOB
Description: as §1, §2, §3, §4, §5

[14] = system: ivyleaf morningglory (Ipomoea hederacea, IPOHE); test: Post-emerge herbicidal activity, greenhouse screen, IPOHE
Description: as §1, §2, §3, §4, §5

[15] = system: lambsquarters (Chenopodium album, CHEAL); test: Post-emerge herbicidal activity, greenhouse screen, CHEAL
Description: as §1, §2, §3, §4, §5

[16] = system: common ragweed (Ambrosia artemisiifolia L., AMBEL); test: Post-emerge herbicidal activity, greenhouse screen, AMBEL
Description: as §1, §2, §3, §4, §5

[17] = system: green foxtail (Setaria viridis, SETVI); test: Post-emerge herbicidal activity, greenhouse screen, SETVI
Description: as §1, §2, §3, §4, §5

[18] = system: barnyardgrass (Echinochloa crus-galli, ECHCG); test: Post-emerge herbicidal activity, greenhouse screen, ECHCG
Description: as §1, §2, §3, §4, §5

[19] = system: johnsongrass (Sorghum halepense, SORHA); test: Post-emerge herbicidal activity, greenhouse screen, SORHA
Description: as §1, §2, §3, §4, §5

[20] = system: large crabgrass (Digitaria sanguinalis, DIGSA); test: Post-emerge herbicidal activity, greenhouse screen, DIGSA
Description: as §1, §2, §3, §4, §5

## Cn1c(C(F)(F)F)cc(=O)n(-c2c(F)cc(Cl)c3nc(C(C)(C)C)oc23)c1=S [Compound 1-3, 3-[2-t-butyl-4-chloro-6-fluoro-1,3-benzoxazol-7-yl]-1-methyl-2-thioxo-6-(trifluoromethyl)-2,3-dihydropyrimidin-4(1H)-one]
[1]; 63 g ai/ha
  Pre-emerge Herbicidal Activity AMARE: 100
[1]; 250 g ai/ha
  Pre-emerge Herbicidal Activity AMARE: 100
[2]; 63 g ai/ha
  Pre-emerge Herbicidal Activity ABUTH: 100
[2]; 250 g ai/ha
  Pre-emerge Herbicidal Activity ABUTH: 100
[3]; 63 g ai/ha
  Pre-emerge Herbicidal Activity CASOB: 95
[3]; 250 g ai/ha
  Pre-emerge Herbicidal Activity CASOB: 100
[4]; 63 g ai/ha
  Pre-emerge Herbicidal Activity IPOHE: 95
[4]; 250 g ai/ha
  Pre-emerge Herbicidal Activity IPOHE: 100
[5]; 63 g ai/ha
  Pre-emerge Herbicidal Activity CHEAL: 100
[5]; 250 g ai/ha
  Pre-emerge Herbicidal Activity CHEAL: 100
[6]; 63 g ai/ha
  Pre-emerge Herbicidal Activity AMBEL: 99
[6]; 250 g ai/ha
  Pre-emerge Herbicidal Activity AMBEL: 100
[7]; 63 g ai/ha
  Pre-emerge Herbicidal Activity SETVI: 100
[7]; 250 g ai/ha
  Pre-emerge Herbicidal Activity SETVI: 100
[8]; 63 g ai/ha
  Pre-emerge Herbicidal Activity ECHCG: 100
[8]; 250 g ai/ha
  Pre-emerge Herbicidal Activity ECHCG: 100
[9]; 63 g ai/ha
  Pre-emerge Herbicidal Activity SORHA: 100
[9]; 250 g ai/ha
  Pre-emerge Herbicidal Activity SORHA: 100
[10]; 63 g ai/ha
  Pre-emerge Herbicidal Activity DIGSA: 100
[10]; 250 g ai/ha
  Pre-emerge Herbicidal Activity DIGSA: 100
[11]; 63 g ai/ha
  Post-emerge Herbicidal Activity AMARE: 100
[11]; 250 g ai/ha
  Post-emerge Herbicidal Activity AMARE: 100
[12]; 63 g ai/ha
  Post-emerge Herbicidal Activity ABUTH: 100
[12]; 250 g ai/ha
  Post-emerge Herbicidal Activity ABUTH: 100
[13]; 63 g ai/ha
  Post-emerge Herbicidal Activity CASOB: 70
[13]; 250 g ai/ha
  Post-emerge Herbicidal Activity CASOB: 100
[14]; 63 g ai/ha
  Post-emerge Herbicidal Activity IPOHE: 100
[14]; 250 g ai/ha
  Post-emerge Herbicidal Activity IPOHE: 100
[15]; 63 g ai/ha
  Post-emerge Herbicidal Activity CHEAL: 100
[15]; 250 g ai/ha
  Post-emerge Herbicidal Activity CHEAL: 100
[16]; 63 g ai/ha
  Post-emerge Herbicidal Activity AMBEL: 99
[16]; 250 g ai/ha
  Post-emerge Herbicidal Activity AMBEL: 100
[17]; 63 g ai/ha
  Post-emerge Herbicidal Activity SETVI: 99
[17]; 250 g ai/ha
  Post-emerge Herbicidal Activity SETVI: 100
[18]; 63 g ai/ha
  Post-emerge Herbicidal Activity ECHCG: 100
[18]; 250 g ai/ha
  Post-emerge Herbicidal Activity ECHCG: 100
[19]; 63 g ai/ha
  Post-emerge Herbicidal Activity SORHA: 65
[19]; 250 g ai/ha
  Post-emerge Herbicidal Activity SORHA: 85
[20]; 63 g ai/ha
  Post-emerge Herbicidal Activity DIGSA: 50
[20]; 250 g ai/ha
  Post-emerge Herbicidal Activity DIGSA: 65

Reference: patent US20040018941A1, “Fused-benzene derivatives of thiouracil, herbicidal and desiccant compositions contaning them” (ISHIHARA SANGYO KAISHA, LTD., priority 2002, published 2004)
